# Data: PubChem BioAssay AID1645867 (Buhrlage Lab, Dana-Farber Cancer Institute and Novartis …, 2021)
# Active and inactive are the calls of the source. The rule behind the calls is not given here. Numbered stars: 1 amine (or outer) side, 2 acyl side, 3 side chain; on linkers, the order of the positions; unused ones are H or OH. Square brackets hold non-standard residues; d marks the D form. Peptide text beside a SMILES is read from it. ξ: configuration not given here. ξβ3hGly(undecyl) = CCCCCCCCCCCC(CC(=O)[*:2])N[*:1]
# Target: Ubiquitin carboxyl-terminal hydrolase isozyme L1 (Homo sapiens) (UniProt P09936)
# Sequence (P09936 whole entry, looked up): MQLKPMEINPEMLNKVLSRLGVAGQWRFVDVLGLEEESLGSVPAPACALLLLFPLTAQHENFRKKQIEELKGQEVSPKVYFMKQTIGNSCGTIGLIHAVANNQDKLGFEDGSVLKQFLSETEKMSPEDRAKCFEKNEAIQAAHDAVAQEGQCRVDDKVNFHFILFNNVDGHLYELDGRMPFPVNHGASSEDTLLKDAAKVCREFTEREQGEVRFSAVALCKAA
# Test: UCH-L1 deubiquitylase inhibitors, biochemical concentration-response, hit retest (AID 1645867)
# Conditions: recombinant UCHL1 deubiquitinase activity assay
row,Compound,IC50
1,Cc1ccc(S(=O)(=O)N2CCCCC2)cc1NC(=O)c1ccc(C#N)cc1,> 25 µM (inactive)
2,CSc1ncccc1C(=O)OCc1ccccc1,> 25 µM (inactive)
3,Cc1ccc(NC(=O)Nc2ccc(C)n(CC(=O)Nc3ccc(C)c(C)c3)c2=O)cc1,> 25 µM (inactive)
4,O=C1CC2(C(=O)N(Cc3ccc(Cl)cc3)c3ccccc32)c2cn[nH]c2N1 (stereo not drawn),> 25 µM (inactive)
5,O=C(Nc1ccc(F)cc1)N1C[C@@H]2c3nccn3-c3ccccc3[C@@H]2C1,> 25 µM (inactive)
6,Cn1nc(Cl)c(Cl)c1Oc1ccc(S(=O)(=O)Nc2ccc(Oc3ccc(C(F)(F)F)cn3)c(Cl)c2)cc1,> 25 µM (inactive)
7,CCc1cccc(C)c1NC(=O)Cn1nc2ccc(C(=O)NCc3ccccc3)cn2c1=O,> 25 µM (inactive)
8,CC1OC2CC(=O)OC2C2=C1C(=O)c1c(O)cccc1C2=O (stereo not drawn),> 25 µM (inactive)
9,O=C(Nc1cccc(-c2nc3cnccc3o2)c1)c1ccc(Br)o1,> 25 µM (inactive)
10,Cc1ccc(C)c(Cn2cnc3c(nnn3-c3cccc(F)c3)c2=O)c1,> 25 µM (inactive)
11,O=c1c(O)c(-c2ccc(O)c(O)c2)oc2cc(O)cc(O)c12,2.32 µM
12,COc1c(O)cc(CC(=O)O)c(C(C)=O)c1O,9.26 µM
13,CCOc1ccc(CC(=O)Nc2ccc(-c3cn4cccnc4n3)cc2)cc1,> 25 µM (inactive)
14,O=C(COc1ccc(Cl)cc1Cl)Nc1ccccc1-c1nc2ccccc2[nH]1,> 25 µM (inactive)
15,CC(C)NC(=O)Cn1ccn2nc(-c3ccc(Cl)cc3)cc2c1=O,> 25 µM (inactive)
16,CCOc1ccc2c(c1)c(=O)c(C(=O)c1ccccc1)cn2CC(=O)Nc1ccc(OC)cc1,> 25 µM (inactive)
17,Cc1ccc(CNC(=O)Cn2c(=O)n(CCCC(=O)NCc3ccc(F)cc3)c(=O)c3ccccc32)cc1,> 25 µM (inactive)
18,N#CCCN(C(=O)c1cc2c(s1)-c1ccccc1OC2)c1ccccc1,> 25 µM (inactive)
19,CCOc1ccc2c(c1)c(=O)c(C(=O)c1ccccc1)cn2CC(=O)Nc1ccc(Cl)cc1,> 25 µM (inactive)
20,O=C(c1ccccc1F)c1cc(Cl)ccc1NC(=O)C1CCCO1 (stereo not drawn),> 25 µM (inactive)
21,Cc1ccc2c(c1)N(C)C(=O)c1cc(NC(=O)c3ccc(F)cc3)ccc1O2,> 25 µM (inactive)
22,N#Cc1ccc(NC(=O)Nc2cccn(Cc3ccccc3Br)c2=O)cc1,> 25 µM (inactive)

row,Compound,IC50
1,CCC(Sc1cccc(NC(=O)C2CCCCC2)c1)C(=O)Nc1cc([N+](=O)[O-])ccc1C (stereo not drawn),> 25 µM (inactive)
2,CCc1ccc(S(=O)(=O)c2cn(CC(=O)Nc3ccccc3)c3ccccc3c2=O)cc1,> 25 µM (inactive)
3,N#Cc1c(-c2ccc(Cl)cc2)ccn2nc(CCC(=O)O)nc12,> 25 µM (inactive)
4,Cc1ccccc1NC(=O)Cn1c(=O)n(-c2ccc(CC(=O)NCCc3ccccc3)cc2)c(=O)c2sccc21,> 25 µM (inactive)
5,CCc1ccc(NC(=O)Cn2c(=O)n(Cc3ccccc3)c(=O)c3nn(CC)cc32)cc1,> 25 µM (inactive)
6,Cc1cc(C)c(NC(=O)Cn2c(=O)n(CCC(=O)NCc3ccc4c(c3)OCO4)c(=O)c3sccc32)c(C)c1,> 25 µM (inactive)
7,O=c1c(S(=O)(=O)c2cc(F)cc(F)c2)c[nH]c2cc(Cl)ccc12,> 25 µM (inactive)
8,Oc1cccc2c(-c3ccc(O)c4c(O)cccc34)ccc(O)c12,10.7 µM
9,O=C(C1CCCC1)N1CCC(c2nc3c(nnn3Cc3ccccc3Cl)c(=O)[nH]2)CC1,> 25 µM (inactive)
10,CCc1ccccc1NC(=O)Cn1c(SCc2ccc(F)cc2)nc2cccnc21,> 25 µM (inactive)
11,N#Cc1cccc(NC(=O)Nc2cccn(Cc3ccccc3F)c2=O)c1,17.1 µM
12,O=C(CN1CCOCC1)Nc1ccc(NC(=O)c2ccc(Cl)cc2)cc1,> 25 µM (inactive)
13,O=C(NCc1ccco1)c1cccc(S(=O)(=O)N2CC(c3ccccc3)CC2=O)c1 (stereo not drawn),> 25 µM (inactive)
14,NC(=O)C1(N2CCCCC2)CCN(CC(=O)Nc2cc(Cl)ccc2Cl)CC1,> 25 µM (inactive)
15,CCCc1ccc(C(=O)[C@@H]2[C@@H](C(=O)c3cccs3)N3c4ccc(C)cc4C(C)=C[C@@H]3[C@@]23C(=O)Nc2ccccc23)cc1,> 25 µM (inactive)
16,O=[N+]([O-])c1ccc(C(O)CN2CCN(Cc3ccccc3)CC2)cc1 (stereo not drawn),> 25 µM (inactive)
17,O=C(COc1ccc(N2CC(C(=O)NCc3ccc4c(c3)OCO4)CC2=O)cc1)Nc1ccc(Cl)cc1 (stereo not drawn),> 25 µM (inactive)
18,COc1ccc2nc(N3CCN(C(=O)C4CCCCC4)CC3)sc2c1,> 25 µM (inactive)
19,O=c1ccc(-c2cc3ccccc3o2)cn1Cc1ccccc1-c1ccccc1,12.7 µM
20,Cc1nc(-c2ccccc2)n(Cc2ccc(F)cc2)c(=O)c1CCO,> 25 µM (inactive)
21,CC[C@H](C)[C@H](NC(=O)[C@H]([C@@H](C)CC)N(C)C(C)=O)C(=O)N[C@H](C(=O)N[C@@H](CC(C)C)C(=O)C1(C)CO1)[C@@H](C)O (stereo partly drawn),> 25 µM (inactive)
22,Cc1ccc(NC(=O)Nc2ccc(C)n(CC(=O)Nc3ccc(C)cc3C)c2=O)cc1,> 25 µM (inactive)

row,Compound,IC50
1,Cc1cc(C)c(NC(=O)Cn2c(SCc3cccc(F)c3)nc3cccnc32)c(C)c1,> 25 µM (inactive)
2,O=c1[nH]oc(O)c1-c1ncc(C(F)(F)F)cc1Cl,> 25 µM (inactive)
3,O=C(Cn1nc2c3c4c(sc3ncn2c1=O)CCCCC4)Nc1ccc(Cl)cc1F,> 25 µM (inactive)
4,Cc1cccc(NC(=O)N2C[C@@H]3c4nccn4-c4ccccc4[C@@H]3C2)c1,> 25 µM (inactive)
5,Cc1cc(C(=O)NC2(O)C(=O)c3ccccc3C2=O)n(C)n1,20.6 µM
6,CCOc1ccc(-c2nnc(NC(=O)C3CCN(S(=O)(=O)c4ccc5c(c4)CCC5)CC3)o2)cc1,> 25 µM (inactive)
7,Cc1cccc(NC(=O)Cn2cccc(S(=O)(=O)N3CCC(C)CC3)c2=O)c1C,> 25 µM (inactive)
8,COc1ccc(NC(=O)Cn2c(=O)n(-c3ccc(CC(=O)NCc4ccco4)cc3)c(=O)c3ccccc32)cc1Cl,> 25 µM (inactive)
9,Cn1c(CNS(=O)(=O)c2ccc(Br)cc2)nnc1SCc1ccc(Cl)c(Cl)c1,> 25 µM (inactive)
10,O=C(Nc1cccc(Br)c1)c1cc(-c2cccnc2)n[nH]1,> 25 µM (inactive)
11,Cc1sc(N)nc1-c1ccc(C(C)(C)C)cc1,> 25 µM (inactive)
12,O=C(Nc1cnc(-c2cccc(Cl)c2)nc1)C1CCC1,> 25 µM (inactive)
13,CNc1nc2c(c(=O)n1C)CN(C(=O)Nc1cccc3ccccc13)CC2,> 25 µM (inactive)
14,Cc1ccc(C(=O)c2cn(CC(=O)Nc3ccc4c(c3)OCO4)c3ccccc3c2=O)cc1,> 25 µM (inactive)
15,COc1ccc(C)cc1NC(=O)COc1ncnc2ccccc12,> 25 µM (inactive)
16,C=C/C(C)=C/[C@@]1(C)SC(=O)C(C)=C1O,5.87 µM
17,O=C(CSc1ccc2nnc(-c3cccc(F)c3)n2n1)N1CCCc2ccccc21,> 25 µM (inactive)
18,O=C(CSc1ccc(-c2cccc([N+](=O)[O-])c2)nn1)Nc1cccc(F)c1,> 25 µM (inactive)
19,CC(C)=CCC(O)C1=CC(=O)c2c(O)ccc(O)c2C1=O (stereo not drawn),3.09 µM
20,Cc1nc(C2(NC(=O)Nc3ccc(F)cc3F)CCCC2)no1,> 25 µM (inactive)
21,Cc1noc(C)c1CN1CCn2c1nc(-c1ccccc1)cc2=O,> 25 µM (inactive)
22,Cn1c2ccccc2c(=O)c2c(=O)n(-c3cccc(Cl)c3)c(-c3cccs3)nc21,> 25 µM (inactive)

row,Compound,IC50
1,CO/C1=C\C(C)=C\[C@@H](C)[C@@H](O)[C@H](C)C/C(C)=C/C=C/[C@H](OC)[C@@H]([C@@H](C)[C@@H](O)[C@H](C)[C@@]2(O)C[C@@H](OC(=O)/C=C/C(=O)NC3=C(O)CCC3=O)[C@H](C)[C@@H](C(C)C)O2)OC1=O,> 25 µM (inactive)
2,COc1ccc(-c2noc(-c3nnn(CC(=O)Nc4ccc(OC)cc4OC)c3N)n2)cc1,> 25 µM (inactive)
3,COc1cc(OC)cc(N2C(=O)N(CC(=O)c3ccc(Br)cc3)c3ccccc3S2(=O)=O)c1,> 25 µM (inactive)
4,O=C1NC[C@@H](CCC(=O)N2CCCC2)N2C[C@@H](NCc3ccccc3)C[C@@H]12,> 25 µM (inactive)
5,O=C(Nc1nc2c(s1)CN(C(=O)c1cc(-c3ccco3)on1)CC2)C1CCCO1 (stereo not drawn),> 25 µM (inactive)
6,CC1(C)Cc2nc(N3CCCC3)c(C#N)cc2CS1,> 25 µM (inactive)
7,COc1ccc(CCN2COc3c(cc(Cl)c4cccnc34)C2)cc1OC,> 25 µM (inactive)
8,Cc1nc(C2COCCN2C(=O)c2cc(C(C)(C)C)[nH]n2)cc(=O)[nH]1 (stereo not drawn),> 25 µM (inactive)
9,COc1ccc(OCC(=O)N(Cc2cccc3ccccc23)c2ccccn2)cc1,> 25 µM (inactive)
10,CN(c1ccccc1)S(=O)(=O)c1ccc(C(=O)Nc2cccc(C#N)c2)cc1,> 25 µM (inactive)
11,O=C(OCC(=O)N1CCOCC1)c1ccccc1OCc1ccccc1Cl,> 25 µM (inactive)
12,CCOc1cccc(-c2noc(-c3nn(-c4ccccc4)ccc3=O)n2)c1,> 25 µM (inactive)
13,CC1=C(O)C(=O)C=C2C1=CC=C1[C@@]2(C)CC[C@@]2(C)[C@@H]3C[C@](C)(C(=O)O)CC[C@]3(C)CC[C@]12C,> 25 µM (inactive)
14,O=C(Nc1cccc(F)c1)N1C[C@@H]2c3nccn3-c3ccccc3[C@@H]2C1,> 25 µM (inactive)
15,CCCCCCCCCCCC1CC(=O)NC(CC(N)=O)C(=O)NC(Cc2ccc(O)cc2)C(=O)NC(CC(N)=O)C(=O)NC(CCC(N)=O)C(=O)N2CCCC2C(=O)NC(CC(N)=O)C(=O)NC(CO)C(=O)N1 (stereo not drawn) (cyclo([ξβ3hGly(undecyl)]NYNQPNS); configuration not given here),> 25 µM (inactive)
16,COc1cccc(C(CC(=O)Nc2ccc3c(c2)OCCO3)n2cccc2)c1 (stereo not drawn),> 25 µM (inactive)
17,O=C(COc1ccc(Cl)cc1Cl)Nc1ccc2[nH]c(=O)[nH]c2c1,> 25 µM (inactive)
18,COC(=O)C1(Cc2ccc(O)cc2)OC(=O)C(O)=C1c1ccc(O)cc1 (stereo not drawn),18.9 µM
19,Cc1ccc(C2CC(=O)c3cnc(NCC4CCCO4)nc3C2)cc1 (stereo not drawn),> 25 µM (inactive)
20,COc1cccc2cc(C(=O)Nc3nc(-c4ccncc4)cs3)oc12,> 25 µM (inactive)
21,CCOc1ccc(NS(=O)(=O)c2ccc(NC(=O)Nc3ccccc3)cc2)cc1,> 25 µM (inactive)
22,Nc1cccc(C(=O)CC2(O)C(=O)N(Cc3ccc(Cl)cc3)c3ccccc32)c1 (stereo not drawn),> 25 µM (inactive)
